Where “and” joins values, the source holds several entries; their conditions need not be identical. Equal entries are not always repeated. Toxic doses and inconclusive results are not listed.
System: P388 leukemia ip, CD2F1 mice, survival T/C
Experiment: NCI In Vivo Anticancer Drug Screen. Data for tumor model P388 Leukemia (intraperitoneal) in CD2F1 (CDF1) mice
Details: endpoint: median survival time, higher = longer survival
Outline: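 Mice carrying the transplanted tumor received test compound or vehicle. Survival was recorded in each group, and the value is the treated-group measurement divided by that of the vehicle-treated control group.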

[1] = dose: 50.0 mg/kg/injection, schedule: Q01DX009 (ip), vehicle: saline
[2] = dose: 100.0 mg/kg/injection, schedule: Q01DX009 (ip), vehicle: saline
[3] = dose: 200.0 mg/kg/injection, schedule: Q01DX009 (ip), vehicle: saline
[4] = dose: 100.0 mg/kg/injection, schedule: Q04DX003 (ip), vehicle: saline with Tween-80
[5] = dose: 200.0 mg/kg/injection, schedule: Q04DX003 (ip), vehicle: saline with Tween-80
[6] = dose: 400.0 mg/kg/injection, schedule: Q04DX003 (ip), vehicle: saline with Tween-80
[7] = dose: 50.0 mg/kg/injection, schedule: Q01DX009 (ip), vehicle: Klucel (hydroxypropylcellulose) (HPC)
[8] = dose: 100.0 mg/kg/injection, schedule: Q01DX009 (ip), vehicle: Klucel (hydroxypropylcellulose) (HPC)
[9] = dose: 200.0 mg/kg/injection, schedule: Q01DX009 (ip), vehicle: Klucel (hydroxypropylcellulose) (HPC)
[10] = dose: 60.0 mg/kg/injection, schedule: Q01DX005 (ip), vehicle: saline with Tween-80
[11] = dose: 120.0 mg/kg/injection, schedule: Q01DX005 (ip), vehicle: saline with Tween-80
[12] = dose: 50.0 mg/kg/injection, schedule: Q01DX009 (ip), vehicle: saline with Tween-80
[13] = dose: 100.0 mg/kg/injection, schedule: Q01DX009 (ip), vehicle: saline with Tween-80

CC[CH2][Pb]([CH2]CC)([CH2]CC)[O]C(=O)C1CCCCC1
T/C (dose: 1.25 mg/kg/injection, schedule: Q01DX009 (ip), vehicle: saline with Tween-80): 105 % of control and 97 % of control | T/C (dose: 2.5 mg/kg/injection, schedule: Q01DX009 (ip), vehicle: saline with Tween-80): 111 % of control and 122 % of control | T/C (dose: 5.0 mg/kg/injection, schedule: Q01DX009 (ip), vehicle: saline with Tween-80): 122 % of control | T/C (dose: 10.0 mg/kg/injection, schedule: Q01DX009 (ip), vehicle: saline with Tween-80): 114 % of control

C=C(c1ccccc1)N1N=NC2CCOC21 (configuration not stated)
T/C (dose: 50.0 mg/kg/injection, schedule: Q01DX005 (ip), vehicle: saline with Tween-80): 105 % of control | T/C (dose: 100.0 mg/kg/injection, schedule: Q01DX005 (ip), vehicle: saline with Tween-80): 99 % of control | T/C (dose: 200.0 mg/kg/injection, schedule: Q01DX005 (ip), vehicle: saline with Tween-80): 100 % of control

CCCCOCCOCCOC1C2CC3C1C3(OCCOCCOCCCC)C2 (configuration not stated)
T/C [1]: 104 % of control | T/C [2]: 99 % of control | T/C [3]: 104 % of control

CN(C)CCNc1ccc2cc3ccc(N=Nc4ccc(N(C)C)cc4)cc3nc2c1
T/C [4]: 100 % of control | T/C [5]: 101 % of control | T/C [6]: 103 % of control

CCCCCCCCCCC(=O)C(=O)c1ccc(O)c(C)c1O
T/C [7]: 100 % of control | T/C [8]: 99 % of control | T/C [9]: 110 % of control

C=C(C)C1CCc2c(C)cc(OC(C)=O)c(C(=O)OC(C)=O)c2C1 (configuration not stated)
T/C (dose: 5.0 mg/kg/injection, schedule: Q01DX005 (ip), vehicle: saline): 107 % of control | T/C (dose: 10.0 mg/kg/injection, schedule: Q01DX005 (ip), vehicle: saline): 105 % of control | T/C (dose: 20.0 mg/kg/injection, schedule: Q01DX005 (ip), vehicle: saline): 105 % of control

COC1(OC)C=NNc2ncnn21
T/C (dose: 60.0 mg/kg/injection, schedule: Q01DX005 (ip), vehicle: saline): 103 % of control | T/C (dose: 120.0 mg/kg/injection, schedule: Q01DX005 (ip), vehicle: saline): 104 % of control | T/C (dose: 240.0 mg/kg/injection, schedule: Q01DX005 (ip), vehicle: saline): 105 % of control

Cc1ccc(N/N=c2\c3nc4ccccc4nc2n(-c2ccccc2C)c(=S)n3-c2ccc(C)cc2)cc1
T/C [10]: 93 % of control | T/C [11]: 96 % of control

Cc1c(Cl)cccc1NS(=O)(=O)c1ccccc1
T/C [4]: 104 % of control | T/C [5]: 104 % of control | T/C [6]: 90 % of control

CCCCNC(=S)N/N=C/c1ccccn1
T/C (dose: 25.0 mg/kg/injection, schedule: Q01DX009 (ip), vehicle: saline with Tween-80): 101 % of control | T/C [12]: 94 % of control | T/C [13]: 111 % of control

O=C1C(c2ccccc2)=C(c2ccccc2)C(=O)N1c1ccccn1
T/C [7]: 94 % of control | T/C [8]: 105 % of control | T/C [9]: 103 % of control

O=C(OCc1ccccc1)ON1C(=O)C2C3C=CC(C3)C2C1=O (configuration not stated)
T/C (dose: 50.0 mg/kg/injection, schedule: Q01DX005 (ip), vehicle: Klucel (hydroxypropylcellulose) (HPC)): 115 % of control | T/C (dose: 100.0 mg/kg/injection, schedule: Q01DX005 (ip), vehicle: Klucel (hydroxypropylcellulose) (HPC)): 110 % of control

[Cl][Cr]([Cl])[Cl].[NH-]CC[N-]CC[NH-]
T/C [1]: 97 % of control | T/C [2]: 109 % of control | T/C [3]: 115 % of control

NC(=S)c1cccc(C2Nc3ccccc3S2)c1 (configuration not stated)
T/C (dose: 100.0 mg/kg/injection, schedule: Q04DX002 (ip), vehicle: saline with Tween-80): 94 % of control | T/C (dose: 200.0 mg/kg/injection, schedule: Q04DX002 (ip), vehicle: saline with Tween-80): 95 % of control | T/C (dose: 400.0 mg/kg/injection, schedule: Q04DX002 (ip), vehicle: saline with Tween-80): 96 % of control

O=[N+]([O-])c1cccc(S(=O)(=O)N/N=C/c2cccc([N+](=O)[O-])c2O)c1
T/C [10]: 106 % of control | T/C [11]: 107 % of control | T/C (dose: 240.0 mg/kg/injection, schedule: Q01DX005 (ip), vehicle: saline with Tween-80): 104 % of control

CN(C)CCOC1OCN(C)CC1(C)C (configuration not stated)
T/C [12]: 104 % of control | T/C [13]: 111 % of control | T/C (dose: 200.0 mg/kg/injection, schedule: Q01DX009 (ip), vehicle: saline with Tween-80): 110 % of control

Reference: PubChem BioAssay AID330 (DTP/NCI, 2004)
